Results on one compound are retold here after patent publication US20230218723A1, “COMPOSITIONS AND METHODS FOR USING SILK-ELASTINLIKE PROTEIN-BASED POLYMERS” (University of Utah Research Foundation, priority 2019, published 2023).

Series [1] in a line: ICG fluorescence imaging, IVIS and clinical endoscope. The format is physicochemical. The procedure: A Karl Storz 4 mm×18 cm ICG endoscope (Karl Storz, Tuttlingen, Germany) attached with a Power LED light source with fiber optic ICG cable and Karl Storz Image is Video System with ICG High Def Camera Head (Karl Storz, Tuttlingen, Germany) was used for imaging the ICG at different concentrations. ICG solution was prepared by mixing 25 mg of ICG in 1 mL of water, resulting in a 25 mg/mL solution. The solution was diluted by half in subsequent wells of a 96-well plate, and the last well was filled with only water (negative control). The endoscope's imaging head was held 4 mm above the surface of the 96-well plate to acquire images. Fluorescent light was captured by the camera and shown as blue. The intensity of the fluorescent light was quantified using the Zen Lite Blue software version 2.6 (Zeiss, Oberkochen, Germany). A fixed area of equal size for each well was selected, and the fluorescence was quantified by taking the arithmetic mean intensity of blue contribution for that particular region in pixels. IVIS was used to image ICG at different concentrations. […] An overlay image combination of photographic and fluorescent image was recorded. The region of interest (ROI) tool was used to perform quantification of the surface intensities. Equal size ROIs were drawn on each well of the plate, and the radiant efficiency was recorded by the software for each defined ROI. […]

Another series deals with L-929 fibroblasts. The experiment in a line: Cytotoxicity of ICG and SELP-ICG, CCK-8, L-929. The class given is cell-based, murine. As to conditions: L929 cells, 24 hrs, as ICG concentration. The source says: (§1) L-929 and HUVEC were selected for use in assessing the cytotoxicity of the SELP-ICG embolic based upon their utility with respect to regulatory testing and relevance to the intended application of the device. L-929 cells are commonly used for FDA testing of contact cytotoxicity of medical devices, such as embolics. HUVEC represents a human cell line, another common cell that is also frequently used for evaluating cytotoxicity. Additionally, HUVEC represents vascular endothelial cells that embolic SELP will be in close contact with during in vivo administration. L-929 fibroblasts were grown with Dulbecco's Modified Eagle Medium (DMEM):F12 (1:1) media, supplemented with 10% FBS, and HUVECs were grown in ECGM. The cells were grown in T-75 flasks at 37° C. with 5% CO2 and passaged at 80-95% confluency. Cells were suspended using TrypLE™ Express Enzyme with no phenol red according to the manufactures protocol. The viability of cells was assessed using 0.4% trypan blue stain using a Countess Automated Cell Counter (ThermoFisher Scientific, Waltham, Mass.). L-929 cells were seeded into new T-75 flasks with 3×10^5 to 6×10^5 viable cells. […] Viability was measured after 24 hrs using a Cell Counting Kit (CCK)-8 assay kit (Dojindo, Kumamoto, Japan). […] LD50 values were determined by fitting the data to a Hill plot with a variable slope using GraphPad Prism 5.0.

The subject of another series is HUVEC. The experiment in a line: Cytotoxicity of ICG and SELP-ICG, CCK-8, HUVEC. The class given is cell-based, human. As to conditions: 24 hrs, as ICG concentration.
Excerpt: as §1

For series [2] the following is noted: cited from earlier work.

With `CC1(C)C(/C=C/C=C/C=C/C=C2\N(CCCCS(=O)(=O)O)c3ccc4ccccc4c3C2(C)C)=[N+](CCCCS(=O)(=O)[O-])c2ccc3ccccc3c21` [ICG, Indocyanine green], the “optimal concentration for fluorescence” value in series [1] (IVIS and Karl Storz ICG endoscope) turned out to be 0.012 mg/mL. In addition, in series [1] (image analysis), the “concentration above which self-quenching occurs” value is given as “higher than 0.012 mg/mL”. In addition, the LD50 was 0.28 ± 0.14 mg/mL with L-929 fibroblasts and 0.068 ± 0.009 mg/mL in the series with HUVEC. Also, the half-life in series [2] (clearance from the bloodstream after intravenous administration) is 3 to 5 min. Besides, the “share of the dose remaining within the tumor by the time of surgery” value in series [2] (intravenous administration) is given as “approximately 0.05%”.
